# In patent US11976083B2, “Inhibitors of peptidylarginine deiminases” (Gilead Sciences, Inc., priority 2020, dated 2024):
# Biological target: T1, human PAD4 (Homo sapiens, UniProt Q9UM07)
# T1 construct: human PAD4 (NM_012387), A2-P663, was PCR amplified; His-SUMO (N, cleaved yes); made in house; host or cells: E. coli BL21(DE3)
# Assay: In vitro PAD4 BAEE biochemical assay
# Settings: BAEE substrate 3 mM, 5 nM PAD4, 2 mM calcium chloride; geometric mean of multiple experiments
# Procedure, shortened: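 Fluorescence read-out (ex 405/em 535 nm) of isoindole formed from ammonia, o-phthalaldehyde and DTT after EDTA stop. Reaction: 5 nM PAD4, 2 mM CaCl2, 3 mM BAEE, 2 h, 25 °C, after 30 min enzyme–compound preincubation. Normalised to BB-Cl-Amidine (50 µM) and DMSO controls.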
# T1 sequence (Q9UM07 2-663): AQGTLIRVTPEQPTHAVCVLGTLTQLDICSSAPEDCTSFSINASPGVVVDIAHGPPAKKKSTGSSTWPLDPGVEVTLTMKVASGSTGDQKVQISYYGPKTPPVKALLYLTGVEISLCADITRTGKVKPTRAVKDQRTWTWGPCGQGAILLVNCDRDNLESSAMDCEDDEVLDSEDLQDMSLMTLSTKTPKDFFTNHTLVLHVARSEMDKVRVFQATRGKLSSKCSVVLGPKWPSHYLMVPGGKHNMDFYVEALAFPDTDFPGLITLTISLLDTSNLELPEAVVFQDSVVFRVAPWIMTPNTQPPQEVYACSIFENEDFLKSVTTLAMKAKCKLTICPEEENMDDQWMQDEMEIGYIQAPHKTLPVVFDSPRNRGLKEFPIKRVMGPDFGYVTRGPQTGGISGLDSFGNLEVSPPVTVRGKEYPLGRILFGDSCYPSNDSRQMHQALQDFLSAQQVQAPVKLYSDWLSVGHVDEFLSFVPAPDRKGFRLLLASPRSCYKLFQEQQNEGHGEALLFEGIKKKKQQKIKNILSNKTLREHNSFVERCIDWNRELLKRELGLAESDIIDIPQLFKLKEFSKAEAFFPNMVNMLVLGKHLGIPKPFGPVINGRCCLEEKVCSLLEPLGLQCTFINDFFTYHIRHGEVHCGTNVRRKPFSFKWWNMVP
row,SMILES,IC50
1,"COc1cc(C(=O)N2CC[C@@H](OC)[C@@H](N)C2)cc2nc(-c3cc4ccc5nc4n3CCCCCCC3(CC3)C(=O)N[C@@H]5C)n(C)c12 [Example 62, (11~{R})-17-[5-[(3~{S},4~{R})-3-amino-4-methoxy-piperidine-1-carbonyl]-7-methoxy-1-methyl-benzimidazol-2-yl]-11-methyl-spiro[1,10,19-triazatricyclo[10.5.2.0^{15,18}]nonadeca-12(19),13,15(18),16-tetraene-8,1′-cyclopropane]-9-one]",150 nM
2,"COc1cc(C(=O)N[C@H]2CNCC(F)(F)C2)cc2nc(-c3cc4ccc5nc4n3CCCCCCC(C)(C)C(=O)N[C@@H]5C)n(C)c12 [Example 63, ~{N}-[(3~{R})-5,5-difluoro-3-piperidyl]-7-methoxy-1-methyl-2-[(11~{R})-8,8,11-trimethyl-9-oxo-1,10,19-triazatricyclo[10.5.2.0^{15,18}]nonadeca-12(19),13,15(18),16-tetraen-17-yl]benzimidazole-5-carboxamide]",25000 nM
3,"COc1cc(C(=O)N[C@H]2CNC[C@H](F)C2)cc2nc(-c3cc4ccc5nc4n3CCCCCCC(C)(C)C(=O)N[C@@H]5C)n(C)c12 [Example 64, ~{N}-[(3~{R},5~{R})-5-fluoro-3-piperidyl]-7-methoxy-1-methyl-2-[(11~{R})-8,8,11-trimethyl-9-oxo-1,10,19-triazatricyclo[10.5.2.0^{15,18}]nonadeca-12(19),13,15(18),16-tetraen-17-yl]benzimidazole-5-carboxamide]",315 nM
4,"COc1cc(C(=O)N2CC[C@@H](CO)[C@H](N)C2)cc2nc(-c3cc4ccc5nc4n3CCCCCCC(C)(C)C(=O)N[C@@H]5C)n(C)c12 [Example 66, (11˜{R})-17-[5-[(3˜{S},4˜{R})-3-amino-4-(hydroxymethyl)piperidine-1-carbonyl]-7-methoxy-1-methyl-benzimidazol-2-yl]-8,8,11-trimethyl-1,10,19-triazatricyclo[10.5.2.0^{15,18}]nonadeca-12(19),13,15(18),16-tetraen-9-one]",1160 nM
5,"COc1cc(C(=O)N[C@H]2CNC[C@H](C)C2)cc2nc(-c3cc4ccc5nc4n3CCCCCCC(C)(C)C(=O)N[C@@H]5C)n(C)c12 [Example 67, 7-methoxy-1-methyl-~{N}-[(3~{R},5~{R})-5-methyl-3-piperidyl]-2-[(11~{R})-8,8,11-trimethyl-9-oxo-1,10,19-triazatricyclo[10.5.2.0^{15,18}]nonadeca-12(19),13,15(18),16-tetraen-17-yl]benzimidazole-5-carboxamide]",1300 nM
6,"COc1cc(C(=O)N[C@H]2CNC[C@@H](C)C2)cc2nc(-c3cc4ccc5nc4n3CCCCCCC(C)(C)C(=O)N[C@@H]5C)n(C)c12 [Example 68, 7-methoxy-1-methyl-~{N}-[(3~{R},5~{S})-5-methyl-3-piperidyl]-2-[(11~{R})-8,8,11-trimethyl-9-oxo-1,10,19-triazatricyclo[10.5.2.0^{15,18}]nonadeca-12(19),13,15(18),16-tetraen-17-yl]benzimidazole-5-carboxamide]",287 nM
7,"COc1cc(C(=O)N[C@H]2CNCC[C@H]2F)cc2nc(-c3cc4ccc5nc4n3CCCCCCC(C)(C)C(=O)N[C@@H]5C)n(C)c12 [Example 69, ~{N}-[(3~{S},4~{R})-4-fluoro-3-piperidyl]-7-methoxy-1-methyl-2-[(11~{R})-8,8,11-trimethyl-9-oxo-1,10,19-triazatricyclo[10.5.2.0^{15,18}]nonadeca-12(19),13,15(18),16-tetraen-17-yl]benzimidazole-5-carboxamide]",201 nM
8,"COc1cc(C(=O)N[C@@H]2CCCNC2)cc2nc(-c3cc4ccc5nc4n3CCCCCCC(C)(C)C(=O)N[C@@H]5C)n(C)c12 [Example 70, 7-methoxy-1-methyl-~{N}-[(3~{R})-3-piperidyl]-2-[(11~{R})-8,8,11-trimethyl-9-oxo-1,10,19-triazatricyclo[10.5.2.0^{15,18}]nonadeca-12(19),13,15(18),16-tetraen-17-yl]benzimidazole-5-carboxamide]",137 nM
9,"COC(=O)[C@H]1CC[C@@H](NC(=O)c2cc(OC)c3c(c2)nc(-c2cc4ccc5nc4n2CCCCCCC(C)(C)C(=O)N[C@@H]5C)n3C)CN1 [Example 71, methyl (2~{R},5~{R})-5-[[7-methoxy-1-methyl-2-[(11~{R})-8,8,11-trimethyl-9-oxo-1,10,19-triazatricyclo[10.5.2.0^{15,18}]nonadeca-12(19),13,15(18),16-tetraen-17-yl]benzimidazole-5-carbonyl]amino]piperidine-2-carboxylate]",560 nM
10,"COc1cc(C(=O)N[C@@H]2CC[C@H](C)NC2)cc2nc(-c3cc4ccc5nc4n3CCCCCCC3(CC3)C(=O)N[C@@H]5C)n(C)c12 [Example 72, 7-methoxy-1-methyl-2-[(11~{R})-11-methyl-9-oxo-spiro[1,10,19-triazatricyclo[10.5.2.0^{15,18}]nonadeca-12(19),13,15(18),16-tetraene-8,1′-cyclopropane]-17-yl]-~{N}-[(3~{R},6~{S})-6-methyl-3-piperidyl]benzimidazole-5-carboxamide]",308 nM
11,"COc1cc(C(=O)N[C@@H]2CC[C@H](C)NC2)cc2nc(-c3cc4ccc5nc4n3CCCCCCC(C)(C)C(=O)N[C@@H]5C)n(C)c12 [Example 73, 7-methoxy-1-methyl-~{N}-[(3~{R},6~{S})-6-methyl-3-piperidyl]-2-[(11~{R})-8,8,11-trimethyl-9-oxo-1,10,19-triazatricyclo[10.5.2.0^{15,18}]nonadeca-12(19),13,15(18),16-tetraen-17-yl]benzimidazole-5-carboxamide]",125 nM
12,"COc1cc(C(=O)N[C@H]2CNCC[C@@H]2F)cc2nc(-c3cc4ccc5nc4n3CCCCCCC3(CC3)C(=O)N[C@@H]5C)n(C)c12 [Example 74, ~{N}-[(3~{S},4~{S})-4-fluoro-3-piperidyl]-7-methoxy-1-methyl-2-[(11~{R})-11-methyl-9-oxo-spiro[1,10,19-triazatricyclo[10.5.2.0^{15,18}]nonadeca-12(19),13,15(18),16-tetraene-8,1′-cyclopropane]-17-yl]benzimidazole-5-carboxamide]",221 nM
13,"COc1cc(C(=O)N[C@H]2CNCC[C@@H]2F)cc2nc(-c3cc4ccc5nc4n3CCCCCCC(C)(C)C(=O)N[C@@H]5C)n(C)c12 [Example 75, ~{N}-[(3~{S},4~{S})-4-fluoro-3-piperidyl]-7-methoxy-1-methyl-2-[(11~{R})-8,8,11-trimethyl-9-oxo-1,10,19-triazatricyclo[10.5.2.0^{15,18}]nonadeca-12(19),13,15(18),16-tetraen-17-yl]benzimidazole-5-carboxamide]",103 nM
14,"COc1cc(C(=O)N[C@H]2CNCC[C@@H]2F)cc2nc(-c3cc4ccc5nc4n3CCCCCC(C)(C)C(=O)N[C@@H]5C)n(C)c12 [Example 76, ~{N}-[(3~{S),4~{S})-4-fluoro-3-piperidyl]-7-methoxy-1-methyl-2-[(10~{R})-7,7,10-trimethyl-8-oxo-1,9,18-triazatricyclo[9.5.2.0^{14,17}]octadeca-11(18),12,14(17),15-tetraen-16-yl]benzimidazole-5-carboxamide]",87 nM
15,"COc1cc(C(=O)N[C@@H]2CCCCNC2)cc2nc(-c3cc4ccc5nc4n3CCCCCCC3(CC3)C(=O)N[C@@H]5C)n(C)c12 [Example 77, ~{N}-[(3~{R})-azepan-3-yl]-7-methoxy-1-methyl-2-[(11~{R})-11-methyl-9-oxo-spiro[1,10,19-triazatricyclo[10.5.2.0^{15,18}]nonadeca-12(19),13,15(18),16-tetraene-8,1′-cyclopropane]-17-yl]benzimidazole-5-carboxamide]",367 nM
16,"COc1cc(C(=O)N[C@@H]2CCCCNC2)cc2nc(-c3cc4ccc5nc4n3CCCCCCC(C)(C)C(=O)N[C@@H]5C)n(C)c12 [Example 78, ~{N}-[(3~{R})-azepan-3-yl]-7-methoxy-1-methyl-2-[(11~{R})-8,8,11-trimethyl-9-oxo-1,10,19-triazatricyclo[10.5.2.0^{15,18}]nonadeca-12(19),13,15(18),16-tetraen-17-yl]benzimidazole-5-carboxamide]",80 nM
17,"COc1cc(C(=O)N2CC[C@H]3CCN[C@H]3C2)cc2nc(-c3cc4ccc5nc4n3CCCCCCC(C)(C)C(=O)N[C@@H]5C)n(C)c12 [Example 79, (11~{R})-17-[5-[(3~{a}~{R},7~{a}~{R})-1,2,3,3~{a},4,5,7,7~{a}-octahydropyrrolo[2,3-c]pyridine-6-carbonyl]-7-methoxy-1-methyl-benzimidazol-2-yl]-8,8,11-trimethyl-1,10,19-triazatricyclo[10.5.2.0^{15,18}]nonadeca-12(19),13,15(18),16-tetraen-9-one]",76 nM
18,"COc1cc(C(=O)N2C[C@H]3CCCN[C@H]3C2)cc2nc(-c3cc4ccc5nc4n3CCCCCCC(C)(C)C(=O)N[C@@H]5C)n(C)c12 [Example 80, (11~{R})-17-[5-[(4~{a}~{R},7~{a}~{R})-1,2,3,4,4~{a},5,7,7~{a}-octahydropyrrolo[3,4-b]pyridine-6-carbonyl]-7-methoxy-1-methyl-benzimidazol-2-yl]-8,8,11-trimethyl-1,10,19-triazatricyclo[10.5.2.0^{15,18}]nonadeca-12(19),13,15(18),16-tetraen-9-one]",255 nM
19,"COc1cc(C(=O)N2CC[C@@H]3CCN[C@@H]3C2)cc2nc(-c3cc4ccc5nc4n3CCCCCCC(C)(C)C(=O)N[C@@H]5C)n(C)c12 [Example 81, (11~{R})-17-[5-[(3~{a}~{S},7~{a}~{S})-1,2,3,3~{a},4,5,7,7~{a}-octahydropyrrolo[2,3-c]pyridine-6-carbonyl]-7-methoxy-1-methyl-benzimidazol-2-yl]-8,8,11-trimethyl-1,10,19-triazatricyclo[10.5.2.0^{15,18}]nonadeca-12(19),13,15(18),16-tetraen-9-one]",505 nM
